The assay concerns the target T1, ENPP1 (Homo sapiens, UniProt P22413).
T1 sequence (P22413 1-925): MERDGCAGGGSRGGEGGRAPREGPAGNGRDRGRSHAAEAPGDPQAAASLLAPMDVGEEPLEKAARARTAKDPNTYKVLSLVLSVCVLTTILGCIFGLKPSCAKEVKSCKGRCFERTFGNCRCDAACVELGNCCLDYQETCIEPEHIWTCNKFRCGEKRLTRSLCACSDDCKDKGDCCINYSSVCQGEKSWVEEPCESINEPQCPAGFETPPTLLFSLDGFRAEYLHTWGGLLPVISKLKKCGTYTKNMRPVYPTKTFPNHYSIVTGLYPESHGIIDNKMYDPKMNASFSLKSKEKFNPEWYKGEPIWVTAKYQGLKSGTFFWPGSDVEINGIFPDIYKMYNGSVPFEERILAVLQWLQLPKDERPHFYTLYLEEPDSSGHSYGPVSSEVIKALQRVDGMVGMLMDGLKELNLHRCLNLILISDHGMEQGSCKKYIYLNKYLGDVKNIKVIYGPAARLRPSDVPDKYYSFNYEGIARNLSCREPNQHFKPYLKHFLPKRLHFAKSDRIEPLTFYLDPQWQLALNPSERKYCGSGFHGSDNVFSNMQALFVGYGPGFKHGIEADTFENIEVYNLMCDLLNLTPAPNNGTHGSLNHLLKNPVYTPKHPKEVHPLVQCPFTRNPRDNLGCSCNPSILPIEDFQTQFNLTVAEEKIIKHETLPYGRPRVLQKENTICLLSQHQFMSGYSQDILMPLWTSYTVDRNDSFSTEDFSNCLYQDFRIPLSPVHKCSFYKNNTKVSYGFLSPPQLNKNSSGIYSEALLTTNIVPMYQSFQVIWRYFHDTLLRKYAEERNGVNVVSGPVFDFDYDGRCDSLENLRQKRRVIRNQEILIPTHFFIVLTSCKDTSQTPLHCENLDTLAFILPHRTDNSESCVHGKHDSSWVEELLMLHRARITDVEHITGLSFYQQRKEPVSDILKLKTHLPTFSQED
Nature of the assay: Indirect quantitation of 2',3'-cGAMP hydrolysis (AMP-Glo Assay kit). The assay is classed as biochemical. Particulars: cGAMP substrate; Ki from IC50 by Cheng-Prusoff; read-out: ENPP1 Inhibition -cGAMP: Ki.
In the case of `COc1cc2ncnc(N3CCc4c(cccc4S(=O)(=O)N4CCN(C)CC4)C3)c2cc1OC` [Example 41, 6,7-dimethoxy-4-(5-((4-methylpiperazin-1-yl)sulfonyl)-3,4-dihydroisoquinolin-2(1H)-yl)quinazoline], the Ki is more than 1000 nM.

On to `COc1cc2nccc(C(=O)N3CCC(CNS(N)(=O)=O)CC3)c2cc1OC` [Example 178, N-((1-(6,7-dimethoxyquinoline-4-carbonyl)piperidin-4-yl)methyl)sulfamide], for which the Ki is more than 1000 nM.

On to `COc1ccc2c(Oc3ccc(NS(N)(=O)=O)cc3)ncnc2c1` [Example 322, N-(4-((7-methoxyquinazolin-4-yl)oxy)phenyl)sulfamide], for which the Ki was less than 100 nM. As to `COc1cc2ncc(-c3ccc(CNS(N)(=O)=O)cc3)nc2cc1OC` [Example 278, N-(4-(6,7-dimethoxyquinoxalin-2-yl)benzyl)sulfamide], the Ki was more than 1000 nM. Then `COc1ccc2c(Oc3ccc(N(C)S(N)(=O)=O)cc3)ccnc2c1` [Example 77, N-(4-((7-methoxyquinolin-4-yl)oxy)phenyl)-N-methylsulfamide], with less than 100 nM; and `COc1cc2ncnc(NCc3ccc4c(c3)COB4O)c2cc1OC` [Example 325, 5-(((6,7-dimethoxyquinazolin-4-yl)amino)methyl)benzo[c][1,2]oxa borol-1(3H)-ol], with less than 100 nM. Then `NS(=O)(=O)NCCC1CCN(c2ncnc3ccc(OC(F)(F)F)cc23)CC1` [Example 194, N-(2-(1-(6-(trifluoromethoxy)quinazolin-4-yl)piperidin-4-yl)ethyl)sulfamide], with more than 1000 nM; and `COc1cc2nccc(N(C)Cc3ccc(NS(N)(=O)=O)cc3)c2cc1OC` [Example 255, N-(4-(((6,7-dimethoxyquinolin-4-yl)(methyl)amino)methyl)phenyl)s ulfamide], with more than 1000 nM; and `COc1cc2ncc(-c3ccc4c(c3)CN(S(N)(=O)=O)CC4)nc2cc1OC` [Example 295, 7-(6,7-dimethoxyquinoxalin-2-yl)-3,4-dihydroisoquinoline-2(1H)-sulfonamide], with more than 1000 nM.

For the compound `COc1cc2ncnc(OCc3ccc(NS(N)(=O)=O)cc3)c2cc1OC` [Example 179, N-(4-(((6,7-dimethoxyquinazolin-4-yl)oxy)methyl)phenyl)sulfamide], the Ki was more than 1000 nM. Then `COc1cc2ncnc(N3CCC(CCNS(=O)(=O)c4ccccn4)CC3)c2cc1OC` [Example 155, N-(2-(1-(6,7-dimethoxyquinazolin-4-yl)piperidin-4-yl)ethyl)pyridine-2-sulfonamide], with 100 to 1000 nM; and `COc1cc2ncnc(N3CCC(CCNS(C)(=O)=O)CC3)c2cc1OC` [Example 338, N-(2-(1-(6,7-dimethoxyquinazolin-4-yl)piperidin-4-yl)ethyl)methanesulfonamide], with 100 to 1000 nM; and `COc1cc2c(cc1OC)N(Cc1ccc(NS(N)(=O)=O)cc1)C(=O)CC2` [Example 173, N-(4-((6,7-dimethoxy-2-oxo-3,4-dihydroquinolin-1 (2H)-yl)methyl)phenyl) sulfamide], with more than 1000 nM. Then `COc1cc2nc(-c3ccccc3)nc(N3CCC(CCNS(N)(=O)=O)CC3)c2cc1OC` [Example 8, N-(2-(1-(6,7-dimethoxy-2-phenylquinazolin-4-yl)piperidin-4-yl)ethyl)sulfamide], with more than 1000 nM; and `COc1cc2ncnc(N3CCC(CCNC(C)=O)CC3)c2cc1OC` [Example 335, N-(2-(1-(6,7-dimethoxyquinazolin-4-yl)piperidin-4-yl)ethyl)acetamide], with 100 to 1000 nM; and `COc1cc2nccc(C(=O)N3CCC(CCNS(N)(=O)=O)CC3)c2cc1OC` [Example 154, N-(2-(1-(6,7-dimethoxyquinoline-4-carbonyl)piperidin-4-yl)ethyl)sulfamide], with more than 1000 nM. Then `CNC(=O)c1ccc2c(N3CCC(CCNS(N)(=O)=O)CC3)ncnc2c1` [Example 163, N-methyl-4-(4-(2-(sulfamoylamino)ethyl)piperidin-1-yl)quinazoline-7-carboxamide], with more than 1000 nM. For `COc1cnc2c(Oc3ccc(NS(N)(=O)=O)cc3)ccnc2c1` [Example 349, N-(4-((7-methoxy-1,5-naphthyridin-4-yl)oxy)phenyl) sulfamide], the Ki was more than 1000 nM. For `COc1ccc2c(c1)OCCN2c1ccc(CNS(N)(=O)=O)cc1` [Example 405, N-(4-(7-methoxy-2,3-dihydro-4H-benzo[b][1,4]oxazin-4-yl)benzyl)sulfamide], the inhibition constant Ki is more than 1000 nM. On to `COc1ccc(-c2cc(N3CCC(NS(N)(=O)=O)CC3)ncn2)cc1OC` [Example 36, N-(1-(6-(3,4-dimethoxyphenyl)pyrimidin-4-yl)piperidin-4-yl)sulfamide], for which the inhibition constant (Ki) is more than 1000 nM. `N#Cc1cnc2cc3c(cc2c1N1CCC(CCNS(N)(=O)=O)CC1)OCO3` [Example 221, N-(2-(1-(7-cyano-[1,3]dioxolo[4,5-g]quinolin-8-yl)piperidin-4-yl)ethyl)sulfamide]: the inhibition constant Ki is more than 1000 nM. Then `COc1ccc2c(=O)n(Cc3ccc(S(N)(=O)=O)cc3)cnc2c1` [Example 400, 4-((7-methoxy-4-oxoquinazolin-3(4H)-yl)methyl)benzenesulfonamide], with more than 1000 nM. Then `Cc1ncnc(N2CCC(NS(N)(=O)=O)CC2)c1C` [Example 39, N-(1-(5,6-dimethylpyrimidin-4-yl)piperidin-4-yl)sulfamide], with more than 1000 nM; and `COc1cc2ncnc(NCc3ccc(S(=O)(=O)O)cc3)c2cc1OC` [Example 161, 4-(((6,7-dimethoxyquinazolin-4-yl)amino)methyl)benzene sulfonic acid], with more than 1000 nM; and `COc1ccc2nccc(-c3ccc4c(c3)CN(S(N)(=O)=O)CC4)c2c1` [Example 358, 7-(6-methoxyquinolin-4-yl)-3,4-dihydroisoquinoline-2(1H)-sulfonamide], with less than 100 nM. Then `CNc1cc(OC)c(OC)cc1C(=O)N1CCC(CCNS(N)(=O)=O)CC1` [Example 123, N-(2-(1-(4,5-dimethoxy-2-(methylamino)benzoyl)piperidin-4-yl)ethyl)sulfamide], with more than 1000 nM; and `CNC(=O)c1cc(N2CCC(CCNS(N)(=O)=O)CC2)ncn1` [Example 130, N-methyl-6-(4-(2-(sulfamoylamino)ethyl)piperidin-1-yl)pyrimidine-4-carboxamide], with more than 1000 nM; and `COc1cc2ncnc(NC(=O)c3ccc(NS(N)(=O)=O)cc3)c2cc1OC` [Example 188, N-(6,7-dimethoxyquinazolin-4-yl)-4-(sulfamoylamino)benzamide], with 100 to 1000 nM. `COc1ccc2c(-c3ccc(CN(C4CC4)S(N)(=O)=O)cc3)ncnc2c1` [Example 324, N-cyclopropyl-N-(4-(7-methoxyquinazolin-4-yl)benzyl)sulfamide]: the Ki is 100 to 1000 nM. Then `NS(=O)(=O)NCCC1CCN(c2ncnc3c2CCN(Cc2ccccc2)C3)CC1` [Example 233, N-(2-(1-(7-benzyl-5,6,7,8-tetrahydropyrido[3,4-d]pyrimidin-4-yl)piperidin-4-yl)ethyl)sulfamide], with more than 1000 nM; and `COc1cc2ncnc(NCc3ccc4c(c3)OCO4)c2cc1OC` [Example 336, N-(benzo[d][1,3]dioxol-5-ylmethyl)-6,7-dimethoxyquinazolin-4-amine], with more than 1000 nM.
